From ChEMBL document CHEMBL2069275, “Phenolic compounds as antiangiogenic CMG2 inhibitors from Costa Rican endophytic fungi” (Bioorg Med Chem Lett, 2012)
Active and inactive are the calls of the source. No cut-off for these calls is given here.

Tests used:
[1] = molecular target: Anthrax toxin receptor 2 (Homo sapiens, UniProt P58335, R40C); test: (§1) Inhibition of AF546-tagged CMG2 R40C mutant binding to AF488-tagged PA E733C mutant incubated for 1 to 3 hrs prior to AF488-tagged PA E733C addition measured after 3 to 4 hrs by FRET assay
[2] = system: HMVEC; test: Antiangiogenic activity against human HMVEC at 39 uM after 4 hrs by Diff-Quick staining relative to control; format: functional
[3] = system: HMVEC; test: Antiangiogenic activity against human HMVEC at 117 uM after 4 hrs by Diff-Quick staining relative to control; format: functional
[4] = Antiproliferative activity against human HMVEC at 39 uM after 24 to 72 hrs by Cyquant-based fluorimetry relative to control
[5] = Antiproliferative activity against human HMVEC at 117 uM after 24 to 72 hrs by Cyquant-based fluorimetry relative to control
[6] = system: Anthrax toxin receptor 2 (Homo sapiens), P58335 [R40C]; test: as §1
[7] = Antiangiogenic activity against human HMVEC at 52 uM after 4 hrs by Diff-Quick staining relative to control; format: functional
[8] = Antiangiogenic activity against human HMVEC at 156 uM after 4 hrs by Diff-Quick staining relative to control; format: functional
[9] = Antiproliferative activity against human HMVEC at 52 uM after 24 to 72 hrs by Cyquant-based fluorimetry relative to control
[10] = Antiproliferative activity against human HMVEC at 156 uM after 24 to 72 hrs by Cyquant-based fluorimetry relative to control

Chain of Anthrax toxin receptor 2 (Homo sapiens), P58335 [R40C] (P58335 whole entry R40C): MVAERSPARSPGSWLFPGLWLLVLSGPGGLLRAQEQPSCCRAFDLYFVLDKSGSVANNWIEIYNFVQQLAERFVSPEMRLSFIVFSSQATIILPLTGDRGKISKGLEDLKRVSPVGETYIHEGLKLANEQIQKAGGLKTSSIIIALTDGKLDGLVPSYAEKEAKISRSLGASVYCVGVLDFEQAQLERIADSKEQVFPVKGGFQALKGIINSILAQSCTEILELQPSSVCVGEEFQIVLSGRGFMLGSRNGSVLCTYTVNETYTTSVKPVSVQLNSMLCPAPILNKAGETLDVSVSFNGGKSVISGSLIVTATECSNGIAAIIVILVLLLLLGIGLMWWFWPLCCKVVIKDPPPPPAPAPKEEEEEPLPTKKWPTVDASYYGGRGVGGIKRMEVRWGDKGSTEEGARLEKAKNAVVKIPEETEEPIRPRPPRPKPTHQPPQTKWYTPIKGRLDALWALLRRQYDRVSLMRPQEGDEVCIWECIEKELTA
Chain of Anthrax toxin receptor 2 (P58335 whole entry R40C): as above

With COc1cccc2c1c(O)cc1cc(C)c(=O)oc12 the IC50 [1] was 500 nM, the Activity [2] was “inactive” and the Activity [3] was “inactive”. For the same compound, the Activity [4] was “Toxic” and the Activity [5] was “Toxic”.
With COc1cccc2c1c(OC)cc1cc(C)c(=O)oc12 the inhibition [6] was “inactive”.
With Cc1cc2cc(O)cc(O)c2c(=O)o1 the Activity [7] was 96%, the Activity [8] was 93.1% and the Activity [9] was “Non-toxic”. For the same compound, the Activity [10] was “Non-toxic”.
